This is an account of results in ChEMBL document CHEMBL4339203, “Structural requirements of cholenamide derivatives as the LXR ligands” (Bioorg Med Chem Lett, 2019).

What is called EC50 is the concentration giving half of the maximal effect.

Active and inactive are the calls of the source. The rule behind the calls is not given here.

The target of series [1] is T1, Oxysterols receptor LXR-beta (Rattus norvegicus) (UniProt Q62755).
T1 sequence (whole entry): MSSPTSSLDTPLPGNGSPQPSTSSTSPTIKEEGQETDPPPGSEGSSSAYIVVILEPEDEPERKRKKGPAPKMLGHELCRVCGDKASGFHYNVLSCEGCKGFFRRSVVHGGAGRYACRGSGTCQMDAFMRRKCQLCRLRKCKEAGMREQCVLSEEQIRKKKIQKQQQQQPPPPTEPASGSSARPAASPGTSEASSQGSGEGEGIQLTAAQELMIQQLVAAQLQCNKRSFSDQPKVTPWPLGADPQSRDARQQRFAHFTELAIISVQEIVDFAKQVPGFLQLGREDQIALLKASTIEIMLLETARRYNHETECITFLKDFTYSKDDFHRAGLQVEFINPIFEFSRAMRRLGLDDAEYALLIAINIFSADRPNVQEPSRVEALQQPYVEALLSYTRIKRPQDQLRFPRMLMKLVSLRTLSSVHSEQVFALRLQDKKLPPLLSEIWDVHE
Briefly: Transactivation of rat LXRbeta expressed in HEK293FT cells measured after 14 to 18 hrs by dual-luciferase reporter gene assay relative to T0901317. It counts as cell-based. In general terms: Reporter assays use an easily measured gene product as a stand-in for the process of interest.

The target of series [2] is T1, Oxysterols receptor LXR-beta (Rattus norvegicus). Briefly: Transactivation of rat LXRbeta expressed in HEK293FT cells at 5 uM measured after 14 to 18 hrs by dual-luciferase reporter gene assay. It is filed as cell-based.
The target of series [3] is T2, Oxysterols receptor LXR-alpha (Rattus norvegicus, UniProt Q62685).
T2 sequence (Q62685 whole entry): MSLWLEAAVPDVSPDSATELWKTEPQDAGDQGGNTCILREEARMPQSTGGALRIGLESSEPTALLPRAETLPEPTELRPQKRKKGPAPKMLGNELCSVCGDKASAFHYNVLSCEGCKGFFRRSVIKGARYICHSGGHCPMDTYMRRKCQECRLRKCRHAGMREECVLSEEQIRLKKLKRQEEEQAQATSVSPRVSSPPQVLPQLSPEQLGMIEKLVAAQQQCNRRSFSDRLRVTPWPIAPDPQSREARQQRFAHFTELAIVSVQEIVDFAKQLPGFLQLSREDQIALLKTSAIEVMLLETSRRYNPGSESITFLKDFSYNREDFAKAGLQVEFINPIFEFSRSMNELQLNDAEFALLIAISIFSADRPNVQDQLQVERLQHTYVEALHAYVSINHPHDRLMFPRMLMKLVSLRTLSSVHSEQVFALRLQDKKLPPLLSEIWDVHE
Briefly: Transactivation of rat LXRalpha expressed in HEK293FT cells co-expressing RXR at 5 uM measured after 14 to 18 hrs by dual-luciferase reporter gene assay. It is filed as cell-based.

Series [4] has as its target T1, Oxysterols receptor LXR-beta (Rattus norvegicus). Briefly: Transactivation of rat LXRbeta expressed in HEK293FT cells co-expressing RXR at 5 uM measured after 14 to 18 hrs by dual-luciferase reporter gene assay. It is filed as cell-based.
The nature of series [5]: Ratio of compound effect for transactivation of rat LXRalpha expressed in HEK293FT cells to compound effect for transactivation of rat LXRbeta expressed in HEK293FT cells.
Series [6] deals with T3, Oxysterols receptor LXR-beta (Rattus norvegicus, UniProt Q62755).
T3 sequence (Q62755 whole entry): T1 sequence (whole entry)
Briefly: Transactivation of rat LXRbeta expressed in HEK293FT cells measured after 14 to 18 hrs by dual-luciferase reporter gene assay. It is filed as cell-based.

For the compound `CCN(C)C(=O)C(C)C[C@@H](C)[C@H]1CC[C@H]2[C@@H]3CC=C4C[C@@H](O)CC[C@]4(C)[C@H]3CC[C@]12C` (stereo in doubt; 11) [listing 1 of 2 here], the Efficacy in series [1] came to 65%.

In the case of `CC(C)N(C(=O)CC[C@@H](C)[C@H]1CC[C@H]2[C@@H]3CC=C4C[C@@H](O)CC[C@]4(C)[C@H]3CC[C@]12C)C(C)C`, the outcome in series [2] and in series [4] was Active. The outcome in series [3] was Active. The Efficacy in series [1] is 148%. For the same compound, the Ratio in series [5] amounted to 2. For the same compound, in series [6] (read-out: EC50), the half-maximal effective concentration (EC50) worked out at 1110 nM.

On to `C[C@H](CCC(=O)N1CCCCC1)[C@H]1CC[C@H]2[C@@H]3CC=C4C[C@@H](O)CC[C@]4(C)[C@H]3CC[C@]12C`, for which the result in series [2] was Active. In series [1], this compound displayed an Efficacy of 134%. Moreover, the EC50 in series [6] (read-out: EC50) turned out to be 127 nM.

Regarding `C[C@H](C[C@@H]1CCCCN(C)C1=O)[C@H]1CC[C@H]2[C@@H]3CC=C4C[C@@H](O)CC[C@]4(C)[C@H]3CC[C@]12C`, the Efficacy in series [1] is 80%. In series [6] (read-out: EC50), the EC50 came to 462 nM.

In the case of `CCCN(C)C(=O)CC[C@@H](C)[C@H]1CC[C@H]2[C@@H]3CC=C4C[C@@H](O)CC[C@]4(C)[C@H]3CC[C@]12C`, the result in series [3] was Active. In addition, the outcome in series [4] was Active. In series [1], this compound returned an Efficacy of 102%. In addition, the concentration giving a half-maximal response (EC50) in series [6] (read-out: EC50) was 1020 nM.

Compound `CCN1CCC[C@@H](C[C@@H](C)[C@H]2CC[C@H]3[C@@H]4CC=C5C[C@@H](O)CC[C@]5(C)[C@H]4CC[C@]23C)C1=O` registered an Efficacy in series [1] of 62%. In series [6] (read-out: EC50), the 50% effective concentration (EC50) worked out at 643 nM.

For the compound `C[C@H](CCC(=O)N1CCCC1)[C@H]1CC[C@H]2[C@@H]3CC=C4C[C@@H](O)CC[C@]4(C)[C@H]3CC[C@]12C`, the outcome in series [2] was Active. The compound also registered an Efficacy in series [1] of 99%. For the same compound, in series [6] (read-out: EC50), the EC50 amounted to 165 nM.

On to `CCN(C)C(=O)C(C)C[C@@H](C)[C@H]1CC[C@H]2[C@@H]3CC=C4C[C@@H](O)CC[C@]4(C)[C@H]3CC[C@]12C` (stereo in doubt; 10) [listing 1 of 2 here], for which the EC50 in series [6] (read-out: EC50) was determined as 3900 nM.

Take `C[C@H](C[C@H]1CCN(C)C1=O)[C@H]1CC[C@H]2[C@@H]3CC=C4C[C@@H](O)CC[C@]4(C)[C@H]3CC[C@]12C`: in series [6] (read-out: EC50), the concentration for a half-maximal effect (EC50) amounted to 1290 nM.

As to `CCN(CC)C(=O)CC[C@@H](C)[C@H]1CC[C@H]2[C@@H]3CC=C4C[C@@H](O)CC[C@]4(C)[C@H]3CC[C@]12C`, the outcome in series [2] and in series [4] was Active. Also, the outcome in series [3] was Active. The same compound had an Efficacy in series [1] of 211%. For the same compound, the EC50 in series [6] (read-out: EC50) was determined as 344 nM.

On to `O=S(=O)(c1ccccc1)N(CC(F)(F)F)c1ccc(C(O)(C(F)(F)F)C(F)(F)F)cc1`, for which, in series [1], the Efficacy is 98%.

Consider `C[C@H](C[C@H]1CCCN(C)C1=O)[C@H]1CC[C@H]2[C@@H]3CC=C4C[C@@H](O)CC[C@]4(C)[C@H]3CC[C@]12C`, for which the concentration giving a half-maximal response (EC50) in series [6] (read-out: EC50) turned out to be 239 nM.

Turning to `CC(C)N(C)C(=O)CC[C@@H](C)[C@H]1CC[C@H]2[C@@H]3CC=C4C[C@@H](O)CC[C@]4(C)[C@H]3CC[C@]12C`, in series [3], the outcome was Active. Moreover, in series [4], the result was Active. This compound had an Efficacy in series [1] of 109%. Besides, the EC50 in series [6] (read-out: EC50) is 623 nM.

Take `C[C@H](C[C@@H]1CCCN(C)C1=O)[C@H]1CC[C@H]2[C@@H]3CC=C4C[C@@H](O)CC[C@]4(C)[C@H]3CC[C@]12C`: the EC50 entry in series [6] is “Not Active”.

For the compound `C[C@H](CCC(=O)N(C)C)[C@H]1CC[C@H]2[C@@H]3CC=C4C[C@@H](O)CC[C@]4(C)[C@H]3CC[C@]12C`, the result in series [2] was Active. In series [1], this compound had an Efficacy of 100%. The EC50 in series [6] (read-out: EC50) lay within 124 to 464 nM.

Turning to `CC(C)NC(=O)CC[C@@H](C)[C@H]1CC[C@H]2[C@@H]3CC=C4C[C@@H](O)CC[C@]4(C)[C@H]3CC[C@]12C`, the result in series [2] was Active. In series [1], this compound came in with an Efficacy of 85%. Besides, in series [6] (read-out: EC50), the EC50 is 862 nM.

Take `CCN(C)C(=O)CC[C@@H](C)[C@H]1CC[C@H]2[C@@H]3CC=C4C[C@@H](O)CC[C@]4(C)[C@H]3CC[C@]12C`: in series [3], the outcome was Active. For the same compound, the result in series [4] was Active. The same compound yielded an Efficacy in series [1] of 108%. Also, the EC50 in series [6] (read-out: EC50) is 786 nM.

`CCN(C)C(=O)C(C)C[C@@H](C)[C@H]1CC[C@H]2[C@@H]3CC=C4C[C@@H](O)CC[C@]4(C)[C@H]3CC[C@]12C` (stereo in doubt; 11) [listing 2 of 2 here]: in series [6] (read-out: EC50), the half-maximal effective concentration (EC50) stood at 1990 nM.

Take `C[C@H](C[C@@H]1CCN(C)C1=O)[C@H]1CC[C@H]2[C@@H]3CC=C4C[C@@H](O)CC[C@]4(C)[C@H]3CC[C@]12C`: in series [6], the EC50 entry was “Not Active”.

In series [1], `CCN(C)C(=O)C(C)C[C@@H](C)[C@H]1CC[C@H]2[C@@H]3CC=C4C[C@@H](O)CC[C@]4(C)[C@H]3CC[C@]12C` (stereo in doubt; 10) [listing 2 of 2 here] yielded an Efficacy of 39%.
